We go through six molecules from patent US9988380B2, “Quorum sensing inhibitors” (priority 2013, dated 2018).

In one experiment the test system is elastase (lasB; PA3724). The following applies: cited from earlier work.
Another experiment has as its system protease IV. The following applies: cited from earlier work.
Experiment [1] relates to LasR-controlled GFP expression in P. aeruginosa PAO1 lasB-gfp(ASV) strain. The experiment is described as follows: P. aeruginosa QS inhibition assay with lasB-gfp(ASV) reporter strain. The experiment is classed as cell-based, Pseudomonas aeruginosa. The settings on record: for effect on cell growth / inhibition of LasR-controlled GFP expression: P. aeruginosa lasB-gfp(ASV) strain; for effect on cell growth: OD600; for inhibition of LasR-controlled GFP expression: 0.78125-50 μM. Here is the method: P. aeruginosa QS inhibition assays. Test compounds were dissolved in 100% DMSO and mixed with ABTGC media, after which they were added to the first column of wells of a 96-well microtitre plate (Nunc) to give a final concentration of 100 μM in a final volume of 200 μl. 100 μL of ABTGC media was then added to the remaining wells in the plate and serial two-fold dilutions of the inhibitors were done by adding 100 μL of the preceding inhibitor-containing well to the subsequent one. The final column was left without inhibitor as a control. Next, an overnight culture of P. aeruginosa lasB-gfp(ASV) strain, grown in LB medium at 37° C. with shaking, was diluted to an optical density (OD) at 600 nm of 0.2, and 100 μl of bacterial suspension was added to each well of the microtitre plate. […] The microtitre plate was incubated at 37° C. in a Tecan Infinite 200 Pro plate reader (Tecan Group Ltd., Männedorf, Switzerland). GFP fluorescence (excitation at 485 nm, emission at 535 nm) and cell density (OD600) measurements were collected at 15 min intervals for at least 14 h. The P. aeruginosa Rhl and Pqs inhibition assays were performed in a similar manner to the LasR inhibition assay.
Inhibition Assay with the P. aeruginosa lasB-gfp(ASV) strain. In the preliminary screen, the 22 selected QSI candidates were screened for their ability to inhibit QS-controlled green fluorescent protein (GFP) expression in the P. aeruginosa lasB-gfp(ASV) strain. Elastase (encoded by the lasB gene) is a virulence factor that is controlled by LasR and therefore a good indicator for LasR activity. […] For ease of identification, each compound was designated a short compound identification code based on its well position in the shipment in place of its standard IUPAC name.
The dose-response curves of these 5 QSI candidates when incubated with the P. aeruginosa PAO1 lasB-gfp(ASV) strain are shown in FIG. 3. GFP expression, which was measured in relative fluorescence units, was normalized by dividing the GFP value by the corresponding OD600 value measured at that time-point. ‘Control’ refers to the PAO1 strain grown without the presence of QSI, and as expected, it had the highest GFP per OD values. For these five compounds, dose-dependent inhibition of lasB-gfp expression was observed, i.e. the higher the concentration of QSI that was present, the greater the inhibition of gfp expression.
IC50 Value Comparisons of the Five QSI Candidates. The slope of the curve for each QSI was calculated based on its respective dose-response curves (from FIG. 3) and plotted against the log inhibitor concentration. The slope is indicative of the biosynthesis rate of GFP due to AHL induction. The half maximal inhibitory concentrations (IC50) of the five QSI candidates were calculated using the Graphpad Prism 6 software package (GraphPad Software Inc., CA, USA).

Another experiment has as its system pqsA-gfp(ASV) expression. The experiment is described as follows: Inhibition of the PQS QS system, pqsA-gfp(ASV) reporter in PAO1 wild-type and lasR mutant. In kind it is cell-based, P. aeruginosa. The method, then: (§1) Inhibition of the Rhl and PQS QS systems in wild-type PAO1 and PAO1 lasR mutant. Wild-type P. aeruginosa PAO1 strains harboring either the rhlA-gfp(ASV) reporter or the pqsA-gfp(ASV) reporter, and a P. aeruginosa PAO1 lasR mutant harboring either the rhlA-gfp(ASV) reporter or the pqsA-gfp(ASV) reporter were used for this experiment (Refer to FIG. 11 for strain information). Overnight cultures of these four strains were diluted 100-fold in ABTGC media within 96-well microtitre plates to a final volume of 200 μL per well. Each of the five QSIs was added in triplicate to a final concentration of 50 μM. 0.5% DMSO was used as a negative control. The microtitre plate was incubated at 37° C. in a Tecan Infinite 200 Pro plate reader where GFP and OD600 readings were measured at 15 min intervals.
(§2) Effect of QSIs on Rhl and Pqs Quorum-Sensing Systems. In order to address the problem of the specificity of present compounds, the five identified QSI compounds were tested to see if they had any effect on the rhl and pqs systems. The five QSIs were tested against a PAO1 wild-type and a PAO1 lasR mutant harboring either the rhlA-gfp (ASV) bioreporter or the pqsA-gfp (ASV) bioreporter. The rhlA system is dependent on the RhlR/I system. By doing so, we were able to determine if a QSI is able to inhibit the other two QS systems (i.e. rhl and pqs) in a lasR-dependent/independent manner (FIG. 8).

A further experiment relates to rhlA-gfp(ASV) expression. Briefly: Inhibition of the Rhl QS system, rhlA-gfp(ASV) reporter in PAO1 wild-type and lasR mutant. In kind it is cell-based, P. aeruginosa. The method, then:
as §1, §2

As for `O=C1C=C2C(=CCOC2O)O1` (stereo not drawn) [patulin], the “reduction of expression of elastase” value in the experiment with elastase (lasB; PA3724) is given as −7 fold.

As for `O=[N+]([O-])c1cc[n+]([O-])cc1` [Compound 4-NPO, 4-nitropyridine-N-oxide], the “reduction of expression of protease IV” value with protease IV is −20.7 fold. For the same molecule, the “reduction of expression of elastase” value with elastase (lasB; PA3724) is listed as −22.6 fold.

`NC(C(=O)O)C(O)c1ccccc1` (racemic) [Compound H1, 2-amino-3-hydroxy-3-phenylpropanoic acid]: in experiment [1], the “effect on cell growth” value is on record as “without affecting cell growth” and the “inhibition of LasR-controlled GFP expression” value is “inhibit LasR-controlled GFP expression in a dose-dependent manner”.

For the molecule `O=c1[nH]cnc2[nH]nnc12` [Compound C1, 6-hydro-3H-1,2,3-triazolo[5,4-d]pyrimidin-7-one], in experiment [1] (P. aeruginosa PAO1 lasB-gfp(ASV)), the “IC50 of lasB-gfp expression, range in words” value was “high nanomolar range”. Also, in experiment [1], the “effect on cell growth” value is reported as “without affecting cell growth” and the “inhibition of LasR-controlled GFP expression” value was “inhibit LasR-controlled GFP expression in a dose-dependent manner”.

Regarding `NC(Cc1cccc(F)c1)C(=O)O` (racemic) [Compound F1, 2-amino-3-(3-fluorophenyl)propanoic acid], the “effect on cell growth” value in experiment [1] was “without affecting cell growth”. The “inhibition of LasR-controlled GFP expression” value in experiment [1] is given as “inhibit LasR-controlled GFP expression in a dose-dependent manner”. Besides, the “inhibition of pqsA-gfp expression” value amounted to 39.4% with pqsA-gfp(ASV) expression (PAO1 lasR mutant, 50 μM QSI) and 25.4% in the experiment on pqsA-gfp(ASV) expression (wild-type PAO1, 50 μM QSI). Also, the “inhibition of rhlA-gfp expression” value is given as 63.1% in the experiment with rhlA-gfp(ASV) expression (PAO1 lasR mutant, 50 μM QSI) and 61.7% in the experiment with rhlA-gfp(ASV) expression (wild-type PAO1, 50 μM QSI).

In the case of `C=C(C)C(=O)C(=CC(=O)O)OC` [penicillic acid], in the experiment on elastase (lasB; PA3724), the “reduction of expression of elastase” value was −12 fold.
